One experiment has as its target T1, HIV protease (Human immunodeficiency virus type 1 group M subtype B, UniProt P04585).
T1 construct: and purified protease
Put plainly: HIV Protease Assay. The format is biochemical. The method, boiled down: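 Purified protease cleaved 450 μM octapeptide substrate in 50 mM sodium acetate pH 5.5 with 100 μg/ml BSA for 30 minutes at 37° C; product analyzed by reverse-phase HPLC at UV220 after H3PO4 quench. Inhibitors tested at final 10 μM with 4% DMSO.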

Experiment [1] relates to RF strain of HIV (CEM-SS cells). Put plainly: Cell Culture Anti-HIV Activity (cell viability, formazan). In kind it is cell-based. Conditions: Human immunodeficiency virus 1, CEM-SS, 144 h, CEM-SS cells, RF strain of HIV, multiplicity of infection 0.04, 6 days at 37° C., 450 nm; read-out: HIV (CEM Cells) IC50. The method, then: The antiviral activity of aminediol inhibitors of the present invention was evaluated by a microculture method which determines the increase in cell viability of an infected culture when a drug is added. The assay depends on the metabolic reduction of tetrazolium reagent by viable cells to yield a soluble colored formazan product.
The assay was performed as follows: suspensions of CEM-SS cells (5000/well) were infected with the RF strain of HIV at a multiplicity of infection at 0.04 in a 96-well plate. The compounds of the present invention listed in the following Table 1, serially diluted in half-log fashion, were added to the infected and uninfected control cells. Untreated (infected and uninfected) cells were included as controls. Following incubation for 6 days at 37° C., viable cells in each well were quantitated by the visible light absorbance at 450 nm.
The IC50 was calculated as the concentration of drug that increased the formazan production in virally infected cells to 50% of that produced by uninfected cells in the absence of drug.

[2] abbreviates: pH 5.5, 10 μM inhibitor, 4% DMSO, 450 μM substrate, pH 5.5, 30 minutes at 37° C., RP-HPLC, read-out: HIV Protease % Inhibition at 10 μM.

Where two headings read alike, the source gives them in different places.

As for `CC(C)(C)OC(=O)N[C@@H](Cc1ccccc1)[C@H](O)CNC[C@@H](O)[C@H](Cc1ccccc1)NC(=O)[C@H](Cc1ccccc1)NC(=O)OCc1ccccc1` (relative stereo) [Compound 55, [1R*,2S*(2S*,3R*)]-N-[[3-[[(1,1-Dimethylethoxy)carbonyl]amino]-2-hydroxy-4-phenylbutyl]amino]-2-hydroxy-1-(phenylmethyl)propyl]-N^2-[(phenylmethoxy)carbonyl]-L-phenylalaninamide], the inhibition at 10 µM at HIV protease (setting [2]) worked out at 91%. Besides, the concentration for half-maximal inhibition (IC50) in experiment [1] was found to be 700 nM. For `CC(C)(C)OC(=O)N[C@@H](Cc1ccccc1)[C@H](O)CNC[C@@H](O)[C@H](Cc1ccccc1)NC(=O)COc1ccccc1` (relative stereo) [Compound 72, 1S-[1R*,2S*(2S*,3R*)]]-[2-Hydroxy-3-[[2-hydroxy-3-[(phenoxyacetyl)amino]-4-phenylbutyl]amino]-1-(phenylmethyl)propyl]carbamic acid, 1,1-dimethylethylester], the inhibition at 10 µM on HIV protease (setting [2]) is 51%. Moreover, in experiment [1], the IC50 was over 3200 nM.

Take `CC(C)[C@H](NC(=O)OCc1cc2ccccc2[nH]1)C(=O)N[C@@H](Cc1ccccc1)[C@H](O)CNC[C@@H](O)[C@H](Cc1ccccc1)NC(=O)OC(C)(C)C` (relative stereo) [Compound 104, [1R*,2S*(2S*,3R*)]-N-[3-[[3-[[(1,1-dimethylethoxy)carbonyl]amino]-2-hydroxy-4-phenylbutyl]amino]-2-hydroxyl-1-(phenylmethyl)propyl]-N^2-[(1H-indol-2-ylmethoxy)carbonyl]-L-valinamide]: the inhibition at 10 µM at HIV protease (setting [2]) stood at 99%. In addition, the IC50 in experiment [1] came out at 30 nM.

On to `CC(C)[C@H](NC(=O)Cc1nc2ccccc2[nH]1)C(=O)N[C@@H](Cc1ccccc1)[C@H](O)CNC[C@@H](O)[C@H](Cc1ccccc1)NC(=O)OC(C)(C)C` (relative stereo) [Compound 105, S-[1R*,2S*(2S*,3R*)]-N-[3-[[3-[[(1,1-Dimethylethoxy)carbonyl]amino]-2-hydroxy-4-phenylbutyl]amino]-2-hydroxy-1-(phenylmethyl)-propyl]-N^2-(1H-benzimidazol-2-ylacetyl)-L-valinamide], for which, on HIV protease (setting [2]), the inhibition at 10 µM is 99%. The IC50 in experiment [1] is 1600 nM. For `CC(C)[C@H](NC(=O)OCc1nc2ccccc2o1)C(=O)N[C@@H](Cc1ccccc1)[C@H](O)CNC[C@@H](O)[C@H](Cc1ccccc1)NC(=O)OC(C)(C)C` (relative stereo) [Compound 171, S-[1R*,2S*(2S*,3R*)]-N^2-[[(2-Benzo-xazolyl)methoxy]carbonyl]-N-[3-[[3-[[(1,1-dimethylethoxy)carbonyl]amino]-2-hydroxy-4-phenylbutyl]amino]-2-hydroxy-1-(phenylmethyl)-propyl]-L-valinamide], in that order: 99% and 50 nM. As to `CC(C)[C@H](NC(=O)OC[C@@H](O)CO)C(=O)N[C@@H](Cc1ccccc1)[C@H](O)CNC[C@@H](O)[C@H](Cc1ccccc1)NC(=O)OC(C)(C)C` (relative stereo) [Compound 202, [[1R*,2S*(2S*,3R*)],N^2-(R*)]-N^2-[(2,3-Dihydroxypropoxy)carbonyl]-N-[3-[[3-[[(1,1-dimethylethoxy)carbonyl]amino]-2-hydroxy-4-phenylbutyl]amino]-2-hydroxy-1-(phenylmethyl)propyl]-L-valinamide], the inhibition at 10 µM on HIV protease (setting [2]) turned out to be 95%. Also, in experiment [1], the IC50 worked out at 16000 nM. In the case of `CC(C)[C@H](NC(=O)OCCNc1ccccc1)C(=O)N[C@@H](Cc1ccccc1)[C@H](O)CNC[C@@H](O)[C@H](Cc1ccccc1)NC(=O)OC(C)(C)C` (relative stereo) [Compound 203, [1R*,2S*(2S*,3R*)]-N-[3-[[3-[[(1,1-Dimethylethoxy)carbonyl]amino]-2-hydroxy-4-phenylbutyl]amino]-2-hydroxy-1-(phenylmethyl)propyl]-N^2-[[2-(phenylamino)ethoxy]carbonyl]-L-valinamide], on HIV protease (setting [2]), the inhibition at 10 µM was 98%. Besides, in experiment [1], the IC50 was 200 nM. In the case of `C=Cc1ccccc1C[C@H](NC(=O)OC(C)(C)C)[C@H](O)CNC[C@@H](O)[C@H](Cc1ccccc1)NC(=O)OC(C)(C)C` [Compound 370, [1S-[1R*,2S*(2S*, 3R*)]]-[3-[[3-[[(1,1-Dimethylethoxy)carbonyl]amino]-2-hydroxy-4-(2-ethenylphenyl)butyl]amino]-2-hydroxy-1-(phenylmethyl)propxyl]carbamic acid, 1.1-dimethylethyl ester], at HIV protease (setting [2]), the inhibition at 10 µM was 96%. As for `CCc1ccccc1CC(NC(=O)OC(C)(C)C)C(O)CNCC(O)C(Cc1ccccc1)NC(=O)OC(C)(C)C` (stereo not drawn) [Compound 371], the inhibition at 10 µM on HIV protease (setting [2]) is 98%.

Consider `CN(C)C(=O)OCCOc1ccc(C[C@H](NC(=O)OC(C)(C)C)[C@H](O)CNC[C@@H](O)[C@H](Cc2ccccc2)NC(=O)OC(C)(C)C)cc1` [Compound 372, [1S-[1R*,2S*(2S*, 3R*)[[-]3-]]4-]4-[2-[[(Dimethylamino)carbonyl]oxy]ethoxyl]phenyl]-3-[[(1,1-dimethylethoxy)carbonyl]amino]-2-hydroxybutyl]amino]-2-hydroxy-1-(phenylmethyl) propyl]carbamic acid], for which the inhibition at 10 µM at HIV protease (pH 5.5, read-out: HIV Protease % Inhibition at 10 μM) amounted to 98%. With `CC(C)(C)OC(=O)N[C@@H](Cc1ccccc1)[C@H](O)CNC[C@@H](O)[C@H](Cc1ccccc1)NC(=O)[C@H](O)c1ccccc1` [Compound 377, [1S-[1R*,2S*[2S*, 3R*(S*)]]]-[3-[[3-[2-Hydroxy-1-oxo-2-phenylethyl)amino]-2-hydroxy-4-phenylbutyl]amino]-2-hydroxy-1-(phenylmethyl)propyl]carbamic acid, 1-dimethylethyl ester], at HIV protease (setting [2]), the inhibition at 10 µM turned out to be 95%. For `CC(C)(C)OC(=O)N[C@@H](Cc1ccccc1)[C@H](O)CNC[C@@H](O)[C@H](Cc1ccccc1)NC(=O)[C@@H](O)c1ccccc1` [Compound 378, [1S-[1R*,2S*[2S*, 3R*(R*)]]]-[3-[[3-[2-Hydroxy-1-oxo-2-phenylethyl)amino]-2-hydroxy-4-phenylbutyl]amino]-2-hydroxy-1-(phenylmethyl)propyl]carbamic acid, 1-dimethylethyl ester], on HIV protease (setting [2]), the inhibition at 10 µM stood at 27%. Regarding `CC(C)(C)OC(=O)N[C@@H](Cc1ccccc1)[C@H](O)CNC[C@@H](O)[C@H](Cc1ccccc1)NC(=O)OC1(C)CCCC1O` (stereo partly drawn) [Compound 379, [1S-(1R*,2S*) (trans)]-[Iminobis[2-hydroxy-1-(phenylmethyl)-3,1-propanediyl]]bis[carbamic acid], 1,1-dimethylethyl 2-hydroxy-1-methylcyclopentyl ester], the inhibition at 10 µM at HIV protease (setting [2]) came to 98%. For the compound `CC(C)(C)OC(=O)N[C@@H](Cc1ccccc1)[C@H](O)CNC[C@@H](O)[C@H](Cc1ccc(OCCN2CCOCC2=O)cc1)NC(=O)OC(C)(C)C` [Compound 380, [1S-[1R*, 2S*(2S*, 3R*)]]-[3-[[3-[[(1,1-Dimethylethoxy)carbonyl]amino]-2-hydroxy-4-[4-[2-(3-oxo-4-morpholinyl)ethoxy]phenyl]-butyl]amino]-2-hydroxy-1-(phenylmethyl)propyl]-carbamic acid, 1,1-dimethylethyl ester], on HIV protease (setting [2]), the inhibition at 10 µM is 97%.

The record behind these values is patent US5760036A, “Aminediol protease inhibitors” (E. R. Squibb & Sons, Inc., priority 1995, dated 1998).
